Laboratory results reported in patent publication US20260262643A1, “HERBICIDAL BENZOXAZINES” (FMC CORPORATION, priority 2022, published 2026).

Key:
blackgrass = assay: Test A postemergence; type: in vivo, Alopecurus myosuroides; conditions: 1000 g ai/ha, Postemergence; 0 to 100 scale
Outline: (§1)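 Visual injury ratings on a 0–100 scale (100 = complete control) versus untreated controls, taken 10 days after treatment in greenhouse. Preemergence: directed soil spray onto seeded loam/sand. Postemergence: foliar application at one- to two-leaf stage, plants 2–10 cm. Formulation: non-phytotoxic solvent plus surfactant.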

ragweed [1] = assay: Test A postemergence; type: in vivo, Ambrosia artemisiifolia; conditions: 1000 g ai/ha, Postemergence; 0 to 100 scale
Outline: as §1

wheat = assay: Test A postemergence; type: in vivo, Triticum aestivum; conditions: 1000 g ai/ha, Postemergence; 0 to 100 scale
Outline: as §1

ragweed [2] = assay: Test A preemergence; type: in vivo, Ambrosia artemisiifolia; conditions: 1000 g ai/ha, 0 to 100 scale (0 no effect, 100 complete control), 10 days
Outline: as §1

kochia [3] = assay: Test A postemergence; type: in vivo, Bassia scoparia; conditions: 1000 g ai/ha, Postemergence; 0 to 100 scale
Outline: as §1

foxtail, giant [4] = assay: Test A postemergence; type: in vivo, Setaria faberi; conditions: 1000 g ai/ha, Postemergence; 0 to 100 scale
Outline: as §1

Pigweed, Redroot [5] = assay: Test A postemergence; type: in vivo, Amaranthus retroflexus; conditions: 1000 g ai/ha, Postemergence; 0 to 100 scale
Text: (§2) Seeds of plant species selected from barnyardgrass (Echinochloa crusgalli), blackgrass (Alopecurus myosuroides), corn (Zea mays), foxtail, giant (giant foxtail, Setaria faberi), goosegrass (Eleusine indica), kochia (Bassia scoparia), oat, wild (wild oat, Avena fatua), pigweed, palmer (palmer amaranth, palmer pigweed, Amaranthus palmeri), Pigweed, Redroot (redroot pigweed, Amaranthus retroflexus), ragweed (common ragweed, Ambrosia artemisiifolia), ryegrass, Italian (italian ryegrass, Lolium multiflorum), soybean (Glycine max), and wheat (Triticum aestivum) were planted into a blend of loam soil and sand and treated preemergence with a directed soil spray using test chemicals formulated in a non-phytotoxic solvent mixture which included a surfactant. At the same time, plants selected from these crops and weed species and also galium (catchweed bedstraw, Galium aparine) and horseweed (Erigeron canadensis) were planted in pots containing the same blend of loam soil and sand and treated with postemergence applications of test chemicals formulated in the same manner. Plants ranged in height from 2 to 10 cm and were in the one- to two-leaf stage for the postemergence treatment. Treated plants and untreated controls were maintained in a greenhouse for 10 days, after which time all treated plants were compared to untreated controls and visually evaluated for injury. Plant response ratings, summarized in Table A, are based on a 0 to 100 scale where 0 is no effect and 100 is complete control. A dash (-) response means no test result.

barnyardgrass [6] = assay: Test A preemergence; type: in vivo, Echinochloa crusgalli; conditions: 1000 g ai/ha, 0 to 100 scale (0 no effect, 100 complete control), 10 days
Outline: as §1

Pigweed, Redroot [7] = assay: Test A preemergence; type: in vivo, Amaranthus retroflexus; conditions: 1000 g ai/ha, 0 to 100 scale (0 no effect, 100 complete control), 10 days
Text: as §2

kochia [8] = assay: Test A preemergence; type: in vivo, Bassia scoparia; conditions: 1000 g ai/ha, 0 to 100 scale (0 no effect, 100 complete control), 10 days
Outline: as §1

ryegrass, Italian [9] = assay: Test A preemergence; type: in vivo, Lolium multiflorum; conditions: 1000 g ai/ha, 0 to 100 scale (0 no effect, 100 complete control), 10 days
Outline: as §1

foxtail, giant [10] = assay: Test A preemergence; type: in vivo, Setaria faberi; conditions: 1000 g ai/ha, 0 to 100 scale (0 no effect, 100 complete control), 10 days
Outline: as §1

ryegrass, Italian [11] = assay: Test A postemergence; type: in vivo, Lolium multiflorum; conditions: 1000 g ai/ha, Postemergence; 0 to 100 scale
Outline: as §1

barnyardgrass [12] = assay: Test A postemergence; type: in vivo, Echinochloa crusgalli; conditions: 1000 g ai/ha, Postemergence; 0 to 100 scale
Outline: as §1

corn = assay: Test A postemergence; type: in vivo, Zea mays; conditions: 1000 g ai/ha, Postemergence; 0 to 100 scale
Outline: as §1

barnyardgrass [13] = assay: Test B flooded paddy test; type: in vivo, Echinochloa crus-galli; conditions: 250 g ai/ha, Flood, 13 days, 0 to 100 scale (0 no effect, 100 complete control)
Outline: (§3)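 Two-leaf plants, 3 cm flood, in-water application, 13-day greenhouse hold, visual 0–100 rating vs untreated checks.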

ducksalad = assay: Test B flooded paddy test; type: in vivo, Heteranthera limosa; conditions: 250 g ai/ha, Flood, 13 days, 0 to 100 scale (0 no effect, 100 complete control)
Outline: as §3

rice = assay: Test B flooded paddy test; type: in vivo, Oryza sativa; conditions: 250 g ai/ha, Flood, 13 days, 0 to 100 scale (0 no effect, 100 complete control)
Outline: as §3

sedge, umbrella = assay: Test B flooded paddy test; type: in vivo, Cyperus difformis; conditions: 250 g ai/ha, Flood, 13 days, 0 to 100 scale (0 no effect, 100 complete control)
Outline: as §3

## CC1CN(C(=O)c2cccc(-n3cncn3)c2)c2ccc(F)cc2O1 (stereo not drawn) [Compound 23]
blackgrass
  Plant response rating, Blackgrass: 30
Ragweed [1]
  Plant response rating, Ragweed: 20
wheat
  Plant response rating, Wheat: 20
Ragweed [2]
  Plant response rating, Ragweed: 0
Kochia [3]
  Plant response rating, Kochia: 10
foxtail, giant [4]
  Plant response rating, Foxtail, Giant: 10
Pigweed, Redroot [5]
  Plant response rating, Pigweed, Redroot: 0
Barnyardgrass [6]
  Plant response rating, Barnyardgrass: 30
Pigweed, Redroot [7]
  Plant response rating, Pigweed, Redroot: 0
Kochia [8]
  Plant response rating, Kochia: 0
ryegrass, Italian [9]
  Plant response rating, Ryegrass, Italian: 30
foxtail, giant [10]
  Plant response rating, Foxtail, Giant: 50
ryegrass, Italian [11]
  Plant response rating, Ryegrass, Italian: 0
Barnyardgrass [12]
  Plant response rating, Barnyardgrass: 10
corn
  Plant response rating, Corn: 30

## CCC1CN(C(=O)c2ccnc(-n3cncn3)c2)c2cccc(Cl)c2O1 (single isomer, unassigned) [Compound 5]
Barnyardgrass [13]
  Plant response rating, Barnyardgrass: 25
Ragweed [2]
  Plant response rating, Ragweed: 0
ducksalad
  Plant response rating, Ducksalad: 35
rice
  Plant response rating, Rice: 0
sedge, umbrella
  Plant response rating, Sedge, Umbrella: 0
Barnyardgrass [6]
  Plant response rating, Barnyardgrass: 70
Pigweed, Redroot [7]
  Plant response rating, Pigweed, Redroot: 80
Kochia [8]
  Plant response rating, Kochia: 30
ryegrass, Italian [9]
  Plant response rating, Ryegrass, Italian: 80
foxtail, giant [10]
  Plant response rating, Foxtail, Giant: 100

## CC1CN(C(=O)c2ccnc(-n3cncn3)c2)c2cccc(Cl)c2O1 (stereo not drawn) [Compound 10]
Barnyardgrass [13]
  Plant response rating, Barnyardgrass: 0
Ragweed [2]
  Plant response rating, Ragweed: 80
ducksalad
  Plant response rating, Ducksalad: 0
rice
  Plant response rating, Rice: 0
sedge, umbrella
  Plant response rating, Sedge, Umbrella: 0
Barnyardgrass [6]
  Plant response rating, Barnyardgrass: 90
Pigweed, Redroot [7]
  Plant response rating, Pigweed, Redroot: 40
Kochia [8]
  Plant response rating, Kochia: 30
ryegrass, Italian [9]
  Plant response rating, Ryegrass, Italian: 80
foxtail, giant [10]
  Plant response rating, Foxtail, Giant: 100

## C=Cc1cccc2c1OC(C)CN2C(=O)c1cccc(-n2cncn2)c1 (stereo not drawn) [Compound 26]
blackgrass
  Plant response rating, Blackgrass: 0
Ragweed [1]
  Plant response rating, Ragweed: 0
wheat
  Plant response rating, Wheat: 0
Ragweed [2]
  Plant response rating, Ragweed: 0
Kochia [3]
  Plant response rating, Kochia: 0
foxtail, giant [4]
  Plant response rating, Foxtail, Giant: 0
Pigweed, Redroot [5]
  Plant response rating, Pigweed, Redroot: 0
Barnyardgrass [6]
  Plant response rating, Barnyardgrass: 0
Pigweed, Redroot [7]
  Plant response rating, Pigweed, Redroot: 0
Kochia [8]
  Plant response rating, Kochia: 0
ryegrass, Italian [9]
  Plant response rating, Ryegrass, Italian: 0
foxtail, giant [10]
  Plant response rating, Foxtail, Giant: 0
ryegrass, Italian [11]
  Plant response rating, Ryegrass, Italian: 0
Barnyardgrass [12]
  Plant response rating, Barnyardgrass: 0
corn
  Plant response rating, Corn: 0

## CC1CN(C(=O)c2cccc(-n3cncn3)c2)c2cc(F)ccc2O1 (stereo not drawn) [Compound 24]
blackgrass
  Plant response rating, Blackgrass: 60
Ragweed [1]
  Plant response rating, Ragweed: 0
wheat
  Plant response rating, Wheat: 30
Ragweed [2]
  Plant response rating, Ragweed: 0
Kochia [3]
  Plant response rating, Kochia: 10
foxtail, giant [4]
  Plant response rating, Foxtail, Giant: 50
Pigweed, Redroot [5]
  Plant response rating, Pigweed, Redroot: 0
Barnyardgrass [6]
  Plant response rating, Barnyardgrass: 50
Pigweed, Redroot [7]
  Plant response rating, Pigweed, Redroot: 0
Kochia [8]
  Plant response rating, Kochia: 0
ryegrass, Italian [9]
  Plant response rating, Ryegrass, Italian: 100
foxtail, giant [10]
  Plant response rating, Foxtail, Giant: 30
ryegrass, Italian [11]
  Plant response rating, Ryegrass, Italian: 60
Barnyardgrass [12]
  Plant response rating, Barnyardgrass: 30
corn
  Plant response rating, Corn: 10

## CC1CN(C(=O)c2cccc(-n3cncn3)c2)c2ccccc2O1 (stereo not drawn) [Compound 31]
blackgrass
  Plant response rating, Blackgrass: 50
Ragweed [1]
  Plant response rating, Ragweed: 0
wheat
  Plant response rating, Wheat: 40
Ragweed [2]
  Plant response rating, Ragweed: 20
Kochia [3]
  Plant response rating, Kochia: 20
foxtail, giant [4]
  Plant response rating, Foxtail, Giant: 80
Pigweed, Redroot [5]
  Plant response rating, Pigweed, Redroot: 0
Barnyardgrass [6]
  Plant response rating, Barnyardgrass: 80
Pigweed, Redroot [7]
  Plant response rating, Pigweed, Redroot: 0
Kochia [8]
  Plant response rating, Kochia: 30
ryegrass, Italian [9]
  Plant response rating, Ryegrass, Italian: 90
foxtail, giant [10]
  Plant response rating, Foxtail, Giant: 100
ryegrass, Italian [11]
  Plant response rating, Ryegrass, Italian: 70
Barnyardgrass [12]
  Plant response rating, Barnyardgrass: 30
corn
  Plant response rating, Corn: 30

## CC1CN(C(=O)c2ccnc(-n3cncn3)c2)c2cccc(Cl)c2O1 (stereo not drawn) [Compound 1]
Barnyardgrass [13]
  Plant response rating, Barnyardgrass: 0
Ragweed [2]
  Plant response rating, Ragweed: 80
ducksalad
  Plant response rating, Ducksalad: 0
rice
  Plant response rating, Rice: 0
sedge, umbrella
  Plant response rating, Sedge, Umbrella: 0
Barnyardgrass [6]
  Plant response rating, Barnyardgrass: 80
Pigweed, Redroot [7]
  Plant response rating, Pigweed, Redroot: 40
Kochia [8]
  Plant response rating, Kochia: 40
ryegrass, Italian [9]
  Plant response rating, Ryegrass, Italian: 90
foxtail, giant [10]
  Plant response rating, Foxtail, Giant: 100
